Laboratory results from US20250313547A1, “CEREBLON LIGANDS AND BIFUNCTIONAL COMPOUNDS COMPRISING THE SAME” (Arvinas Operations, Inc., priority 2017, published 2025).

Tests used:
androgen receptor (AR) = assay: AR ELISA assay (androgen receptor degradation); format: cell-based; details: LNCaP and/or VCaP cells, 5 hours drug treatment; for AR Dmax: % degraded
Experimental: 5. AR ELISA Assay Protocol
Compounds were evaluated in this assay in LNCaP and/or VCaP cells utilizing similar protocols. The protocols used with VCaP cells are described below. The androgen receptor ELISA assay was performed using PathScan AR Sandwich ELISA (Cell Signaling Catalog #12850) according to the following assay steps:
VCaP cells were seeded at 40,000 cells/well at a volume of 100 µL/well in VCaP assay medium [Phenol red free RPMI (Gibco Cat #11835-030); 5% Charcoal Stripped (Dextran treated) FBS (Omega Scientific, Cat #FB-04); 1% penstrep (Life Technologies, Gibco Cat #: 10378-016)] in Corning 3904 plates. The cells were incubated for a minimum of 3 days. Cells were dosed with PROTACs diluted in 0.01% DMSO and the drug treatment was allowed for 5 hours.
AR ELISA (Cell Signaling) was performed as follows. 1×Cell Signaling Cell lysis buffer was made (Catalogue #9803; comes with the kit). Media from the treated wells is aspirated, and 100 μL 1×cell lysis buffer/well is added. The cells were placed on a shaker for 10 minutes at 4° C. Twenty microliters of lysate was transferred to 100 μl of Diluent in ELISA plate ([…]-0.075 μg/ml). The lysate-diluent mixture was shaken for 30 minutes at 37° C. Allow mouse AR antibody, anti-mouse antibody, TMB, and STOP solution to come to room temperature. The 1×ELISA buffer included in kit was made and loaded in the reservoir. Media from the plates was discarded, the ELISA plate tapped hard on paper towel, and washed 4×200 μl ELISA wash buffer using a plate washer.
One-hundred (100) μL/well of mouse AR detection Ab was added; the plates were covered and shaken at 37° C. for 1 hour; media was discarded from the plates, the plates were tapped on a paper towel, washed 4× with 200 μL ELISA wash buffer with a plate washer.
One-hundred (100) μL/well of anti-mouse—HRP conjugated Ab (comes with the kit) was added; the plates were covered and shaken at 37° C. for 30 minutes; the TMB reagent was allowed to come to room temperature; the media was discard from the plate, the plates were tapped on paper towel, washed 4× with 200 μL of ELISA wash buffer; the plates were tapped the plates on paper towel. One-hundred (100) μL of TMB was added and the plates shaken for 2 minutes—while watching for color development. One-hundred (100) μL Stop solution was added when light blue color developed. Plates were shaken and read at 450 nm.

[1] = molecular target: immobilized CRBN protein (cereblon) (Homo sapiens (Human), UniProt Q96SW2); assay: Surface plasmon resonance (SPR) KD determination on immobilized cereblon; details: average of at least N=2, 1:1 fit, read-out: KD Binding to immobilized CRBN protein in SPR assay
immobilized CRBN protein (cereblon), sequence (Q96SW2 whole entry): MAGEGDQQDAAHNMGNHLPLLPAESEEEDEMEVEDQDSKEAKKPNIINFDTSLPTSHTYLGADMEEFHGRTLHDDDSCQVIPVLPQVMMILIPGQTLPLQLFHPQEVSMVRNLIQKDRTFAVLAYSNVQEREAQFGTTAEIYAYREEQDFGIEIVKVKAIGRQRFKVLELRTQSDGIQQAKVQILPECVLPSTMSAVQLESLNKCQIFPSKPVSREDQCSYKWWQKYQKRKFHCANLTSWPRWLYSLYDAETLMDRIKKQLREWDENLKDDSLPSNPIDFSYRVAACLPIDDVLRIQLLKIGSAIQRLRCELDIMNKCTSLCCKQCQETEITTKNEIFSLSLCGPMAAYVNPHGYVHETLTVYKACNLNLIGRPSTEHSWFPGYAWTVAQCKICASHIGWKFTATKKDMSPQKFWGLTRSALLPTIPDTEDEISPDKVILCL
Experimental: The surface plasmon resonance (SPR) experiments were conducted on a Biacore3000 (GE Healthcare). Myc-tagged cereblon was immobilized on a carboxymethylated dextran surface (CM5) amine coupled to anti-Myc antibody to recognize the Myc tag. His-tagged cereblon protein was immobilized on a carboxymethylated dextran surface with nitriloacetic acid (NTA), taking advantage of NTA/Ni^2+ chelation. The prepared surface was allowed to equilibrate over three hours in running buffer (10 mM HEPES buffer @pH 7.4, 150 mM NaCl, 0.005% P20,2% DMSO).
All compounds were prepared in 100% DMSO stock plates with a top concentration of 5 mM in a 3× serial dilution. Compounds were transferred from the stock plate to the assay plate and diluted into running buffer containing no DMSO. All compounds were run as a six-concentration series with a final assay top concentration of 100 μM.
Data analysis was performed in Scrubber 2 (BioLogic software, Campbell, Australia). Blanks were subtracted and data was corrected for DMSO against a standard DMSO curve.

DC50 (androgen receptor (AR)) [µM]	Kd [1] [µM]	SMILES	AR Dmax (androgen receptor (AR))
–	10 to 100	O=C1CCC(N2C(=O)c3cc(F)c(NCCCCCCO)cc3C2=O)C(=O)N1 (centres unmarked) [compound 3]	–
–	10 to 100	O=C1CCC(N2Cc3c(ccc(F)c3OCCCCCCO)C2=O)C(=O)N1 (centres unmarked) [compound 4]	–
–	10 to 100	O=C1CCC(N2Cc3cc(NCCCCCCO)c(F)cc3C2=O)C(=O)N1 (centres unmarked) [compound 5]	–
–	> 100	O=C1CCC(N2C(=O)c3c(F)ccc(F)c3C2=O)C(=O)N1 (centres unmarked) [compound 8]	–
–	1 to 10	O=C1CCC(N2C(=O)c3ccc(F)c(F)c3C2=O)C(=O)N1 (centres unmarked) [compound 9]	–
–	> 100	O=C1CCC(N2C(=O)c3ccccc3C2=O)C2(COC2)N1 (centres unmarked) [compound 14]	–
–	> 100	CCOc1cnn(C2CCC(=O)NC2=O)c(=O)c1Cl (centres unmarked) [compound 15]	–
–	> 100	O=C1CCC(N2C(=O)c3ccc(F)cc3C2=O)C(=O)N1 (centres unmarked) [compound 17]	–

Continued, compound first:

SMILES	DC50 (androgen receptor (AR)) [µM]	Kd [1] [µM]	AR Dmax (androgen receptor (AR))
CC1(C)[C@H](NC(=O)c2ccc(N3CCN(CCCOc4ccc(C(=O)NC5CCC(=O)NC5=O)nc4)CC3)nc2)C(C)(C)[C@H]1Oc1ccc(C#N)c(Cl)c1 (some centres unmarked) [PROTAC-50, 5-(3-(4-(5-(((1r,3r)-3-(3-chloro-4-cyanophenoxy)-2,2,4,4-tetramethylcyclobutyl)carbamoyl)pyridin-2-yl)piperazin-1-yl)propoxy)-N-(2,6-dioxopiperidin-3-yl)picolinamide]	< 0.001	–	B (50 < B <= 75)
CC1(C)[C@H](NC(=O)c2ccc(N3CCC(CN4CCN(c5ccc(C(=O)NC6CCC(=O)NC6=O)nc5)CC4)CC3)nc2)C(C)(C)[C@H]1Oc1ccc(C#N)c(Cl)c1 (some centres unmarked) [PROTAC-53, 5-(4-((1-(5-(((1r,3r)-3-(3-chloro-4-cyanophenoxy)-2,2,4,4-tetramethylcyclobutyl)carbamoyl)pyridin-2-yl)piperidin-4-yl)methyl)piperazin-1-yl)-N-(2,6-dioxopiperidin-3-yl)picolinamide]	< 0.001	–	A (A > 75)
N#Cc1ccc(O[C@H]2CC[C@H](NC(=O)c3ccc(N4CCC(CN5CCN(c6cc(C(=O)O)c(C(=O)NC7CCC(=O)NC7=O)cc6F)CC5)CC4)nn3)CC2)cc1Cl (some centres unmarked) [PROTAC-57, 5-(4-((1-(6-(((1r,4r)-4-(3-chloro-4-cyanophenoxy)cyclohexyl)carbamoyl)pyridazin-3-yl)piperidin-4-yl)methyl)piperazin-1-yl)-2-((2,6-dioxopiperidin-3-yl)carbamoyl)-4-fluorobenzoic acid]	0.001 to 0.01	–	A (A > 75)
N#Cc1ccc(O[C@H]2CC[C@H](NC(=O)c3ccc(N4CCC(CN5CCN(c6cc(C(=O)NC7CCC(=O)NC7=O)c(C(=O)O)cc6F)CC5)CC4)nn3)CC2)cc1Cl (some centres unmarked) [PROTAC-58, 4-(4-((1-(6-(((1r,4r)-4-(3-chloro-4-cyanophenoxy)cyclohexyl)carbamoyl)pyridazin-3-yl)piperidin-4-yl)methyl)piperazin-1-yl)-2-((2,6-dioxopiperidin-3-yl)carbamoyl)-5-fluorobenzoic acid]	0.01 to 0.1	–	B (50 < B <= 75)
N#Cc1ccc(O[C@H]2CC[C@H](NC(=O)c3ccc(N4CCC(CN5CCN(c6ccc(C(=O)NC7CCC(=O)NC7=O)cc6)CC5)CC4)nn3)CC2)cc1Cl (some centres unmarked) [PROTAC-59, N-((1r,4r)-4-(3-chloro-4-cyanophenoxy)cyclohexyl)-6-(4-((4-(4-((2,6-dioxopiperidin-3-yl)carbamoyl)phenyl)piperazin-1-yl)methyl)piperidin-1-yl)pyridazine-3-carboxamide]	< 0.001	–	A (A > 75)
CC1(C)[C@H](NC(=O)c2ccc(CCCCN3CCN(c4cnn(C5CCC(=O)NC5=O)c(=O)c4)CC3)nc2)C(C)(C)[C@H]1Oc1ccc(C#N)c(Cl)c1 (some centres unmarked) [PROTAC-61, N-((1r,3r)-3-(3-chloro-4-cyanophenoxy)-2,2,4,4-tetramethylcyclobutyl)-6-(4-(4-(1-(2,6-dioxopiperidin-3-yl)-6-oxo-1,6-dihydropyridazin-4-yl)piperazin-1-yl)butyl)nicotinamide]	< 0.001	–	B (50 < B <= 75)
CC1(C)[C@H](NC(=O)c2ccc(N3CCC(CN4CCN(c5ccc6c(c5)C(=O)N(C5CC(=O)NC5=O)C6=O)CC4)CC3)cc2)C(C)(C)[C@H]1Oc1ccc(C#N)c(Cl)c1 (some centres unmarked) [PROTAC-66, N-((1r,3r)-3-(3-chloro-4-cyanophenoxy)-2,2,4,4-tetramethylcyclobutyl)-4-(4-((4-(2-(2,5-dioxopyrrolidin-3-yl)-1,3-dioxoisoindolin-5-yl)piperazin-1-yl)methyl)piperidin-1-yl)benzamide]	≥ 0.1	–	C (C <= 50)
Cn1c(-c2ccc(N3CCN(CC4CCN(c5ccc(C(=O)N[C@H]6C(C)(C)[C@H](Oc7ccc(C#N)c(Cl)c7)C6(C)C)cc5)CC4)CC3)cc2)nn(C2CCC(=O)NC2=O)c1=O (some centres unmarked) [PROTAC-70, N-((1r,3r)-3-(3-chloro-4-cyanophenoxy)-2,2,4,4-tetramethylcyclobutyl)-4-(4-((4-(4-(1-(2,6-dioxopiperidin-3-yl)-4-methyl-5-oxo-4,5-dihydro-1H-1,2,4-triazol-3-yl)phenyl)piperazin-1-yl)methyl)piperidin-1-yl)benzamide]	< 0.001	–	A (A > 75)
CC1(C)[C@H](NC(=O)c2ccc(N3CCN(CCCCCOc4ccc5c(-n6ccc(=O)[nH]c6=O)cncc5c4)CC3)nc2)C(C)(C)[C@H]1Oc1ccc(C#N)c(Cl)c1 [PROTAC-79, N-((1r,3r)-3-(3-chloro-4-cyanophenoxy)-2,2,4,4-tetramethylcyclobutyl)-6-(4-(5-((4-(2,4-dioxo-3,4-dihydropyrimidin-1(2H)-yl)isoquinolin-7-yl)oxy)pentyl)piperazin-1-yl)nicotinamide]	0.001 to 0.01	–	C (C <= 50)
CC1(C)[C@H](NC(=O)c2ccc(N3CCN(CCCCCOc4ccc5ncc(-n6cc(C#N)c(=O)[nH]c6=O)cc5c4)CC3)nc2)C(C)(C)[C@H]1Oc1ccc(C#N)c(Cl)c1 [PROTAC-80, N-((1r,3r)-3-(3-chloro-4-cyanophenoxy)-2,2,4,4-tetramethylcyclobutyl)-6-(4-(5-((3-(5-cyano-2,4-dioxo-3,4-dihydropyrimidin-1(2H)-yl)quinolin-6-yl)oxy)pentyl)piperazin-1-yl)nicotinamide]	≥ 0.1	–	C (C <= 50)
C=C1CN(C2CCC(=O)NC2=O)C(=O)c2ccc(N3CCN(CC4CCN(c5ccc(C(=O)N[C@H]6C(C)(C)[C@H](Oc7ccc(C#N)c(Cl)c7)C6(C)C)cc5)CC4)CC3)cc21 (some centres unmarked) [PROTAC-81, N-((1r,3r)-3-(3-chloro-4-cyanophenoxy)-2,2,4,4-tetramethylcyclobutyl)-4-(4-((4-(2-(2,6-dioxopiperidin-3-yl)-4-methylene-1-oxo-1,2,3,4-tetrahydroisoquinolin-6-yl)piperazin-1-yl)methyl)piperidin-1-yl)benzamide]	< 0.001	–	A (A > 75)
CC1(C)[C@H](NC(=O)c2ccc(N3CCC(CN4CCN(c5ccc6c(=O)n(C7CCC(=O)NC7=O)ccc6c5)CC4)CC3)cc2)C(C)(C)[C@H]1Oc1ccc(C#N)c(Cl)c1 (some centres unmarked) [PROTAC-82, N-((1r,3r)-3-(3-chloro-4-cyanophenoxy)-2,2,4,4-tetramethylcyclobutyl)-4-(4-((4-(2-(2,6-dioxopiperidin-3-yl)-1-oxo-1,2-dihydroisoquinolin-6-yl)piperazin-1-yl)methyl)piperidin-1-yl)benzamide]	< 0.001	–	A (A > 75)
O=C1NC(C(F)(F)F)CCC1N1C(=O)c2cccc(F)c2C1=O (centres unmarked) [compound 6]	–	> 100	–
O=C1c2cccc(F)c2C(=O)N1c1ccc(C(F)(F)F)[nH]c1=O [compound 7]	–	> 100	–
CNc1ccccc1C(=O)NCCN1CCC(=O)NC1=O [compound 10]	–	> 100	–
CNc1ccccc1C(=O)NCCN1C(=O)CCNC1=O [compound 11]	–	> 100	–
CNc1ccccc1C(=O)NCCn1ccc(=O)[nH]c1=O [compound 12]	–	> 100	–
O=C1c2ccccc2C(=O)N1CCn1ccc(=O)[nH]c1=O [compound 16]	–	> 100	–
